Where two headings read alike, the source gives them in different places.
Experiments:
[1] = tested on: NRK-52E, normal rat kidney cells; settings: 24 h
[2] = tested on: FDC-P1, normal mouse myelogeous stem cells; settings: 24 h
[3] = tested on: L8, normal rat skeletal muscle cells; settings: 24 h
Experimental: In order to assess the cytotoxicity of the drugs to normal cells, we used 96 well plates plated at a density of 5000 cells per well (except for the FDC-P1 which were plated at 12,000 cells per well) with normal cell lines (ATCC, Table 1) maintained as per the directions of the ATCC: AML-12, normal mouse liver cells; NRK-52E, normal rat kidney cells; L8, normal rat skeletal muscle cells; FDC-P1, normal mouse myelogeous stem cells; and H9c2 (2-1), normal rat cardiac muscle cells. The cells in each plate were permitted to settle overnight before adding the test drug.
To each well (100 μl medium) 10 μl of drug in media was added at varying concentrations (1×10-10-0.01 mg/ml final concentration) and further incubated overnight at 37° C. with 5% CO2. After 24 h the following assays were performed. All experiments were repeated at least 3 times and were assayed in duplicate.
MTS assay (CellTiter 96 aqueous) was performed according to the manufacturer's (Promega) directions (for all cell types). Cell viability (mitochondrial activity) is determined via enzymatic conversion of the formazan substrate.

[4] = tested on: H9c2 (2-1), normal rat cardiac muscle cells; settings: 24 h
[5] = tested on: AML-12, normal mouse liver cells; settings: 24 h
IGROV = experiment: cells; format: cell-based; settings: for GI50 / TGI: 48 hours exposure, SRB; for CC50: read-out: LC50, 48 hours exposure, SRB
In short: (§1)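 Readout: SRB OD490, triplicate wells. Setup: 5×10^3 cells/well, RPMI 1640 + 10% FBS, 37° C, 5% CO2; 18 h pre-attachment; 48 h sample exposure, 10 to 10^−8 μg/ml. Outputs GI, TGI (cytostatic), LC (cytotoxic).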

IGROV-ET = experiment: cells; format: cell-based
In short: as §1

LOVO = experiment: cells; format: cell-based
In short: as §1

DU145 = experiment: cells; format: cell-based
In short: as §1

LOVO-DOX = experiment: cells; format: cell-based
In short: as §1

PANC-1 = experiment: cells; format: cell-based; settings: PANC-1, 48 hours exposure, SRB; for CC50: read-out: LC50
In short: as §1

K562 = experiment: cells; format: cell-based; settings: K562, 48 hours exposure, SRB; for CC50: read-out: LC50
In short: as §1

LNCAP = experiment: cells; format: cell-based
In short: as §1

A549 = experiment: cells; format: cell-based; settings: A549, 48 hours exposure, SRB; for GI50: read-out: GI50; for CC50: read-out: LC50
In short: as §1

HT29 = experiment: cells; format: cell-based
In short: as §1

SK-BR3 = experiment: cells; format: cell-based; settings: SK-BR3, 48 hours exposure, SRB; for CC50: read-out: LC50
In short: as §1

MEL-28 = experiment: cells; format: cell-based; settings: MEL-28, 48 hours exposure, SRB; for CC50: read-out: LC50
In short: as §1

H-MEC-1 = experiment: Inhibition of cells growth by colorimetric assay (SRB), H-MEC-1; format: cell-based
From the text: (§2) The finality of these assays is to interrupt the growth of a “in vitro” tumor cell culture by means of a continued exhibition of the cells to the sample to be testing.
(§3) A colorimetric type of assay, using sulphorhodamine B (SRB) reaction has been adapted for a quantitative measurement of cell growth and viability [following the technique described by Philip Skehan, et al. (1990), New colorimetric cytotoxicity assay for anticancer drug screening, J. Natl. Cancer Inst., 82:1107-1112]
(§4) This form of the assay employs 96 well cell culture microplates of 9 mm diameter (Faircloth, 1988; Mosmann, 1983). Most of the cell lines are obtained from American Type Culture Collection (ATCC) derived from different human cancer types.
(§5) Cells are maintained in RPMI 1640 10% FBS, supplemented with 0.1 g/l penicillin and 0.1 g/l streptomycin sulphate and then incubated at 37° C., 5% CO2 and 98% humidity. For the experiments, cells were harvested from subconfluent cultures using trypsin and resuspended in fresh medium before plating.
(§6) Cells are seeded in 96 well microtiter plates, at 5×10^3 cells per well in aliquots of 195 μl medium, and they are allowed to attach to the plate surface by growing in drug free medium for 18 hours. Afterward, samples are added in aliquots of 5 μl in a ranging from 10 to 10^−8 μg/ml, dissolved in DMSO/EtOH/PBS (0.5:0.5:99). After 48 hours exposure, the antitumor effect are measured by the SRB methodology: cells are fixed by adding 50 μl of cold 50% (wt/vol) trichloroacetic acid (TCA) and incubating for 60 minutes at 4° C. Plates are washed with deionized water and dried. One hundred μl of SRB solution (0.4% wt/vol in 1% acetic acid) is added to each microtiter well and incubated for 10 minutes at room temperature. Unbound SRB is removed by washing with 1% acetic acid. Plates are air dried and bound stain is solubilized with Tris buffer. Optical densities are read on a automated spectrophotometric plate reader at a single wavelength of 490 nm.
(§7) The values for mean+/− SD of data from triplicate wells are calculated. Some parameters for cellular responses can be calculated: GI=growth inhibition, TGI=total growth inhibition (cytostatic effect) and LC=cell killing (cytotoxic effect).

SK-OV3 = experiment: Inhibition of cells growth by colorimetric assay (SRB), SK-OV3; format: cell-based
From the text: as §2, §3, §4, §5, §6, §7

[6] = IGROV-ET, 48 hours exposure, SRB
[7] = Homo sapiens, LoVo, 48 h, 48 hours exposure, SRB
[8] = LOVO-DOX, 48 hours exposure, SRB
[9] = Homo sapiens, LNCaP, 48 h, 48 hours exposure, SRB
[10] = Homo sapiens, HT-29, 48 h, HT29, 48 hours exposure, SRB
[11] = H-MEC-1, 48 hours exposure, SRB

`COc1c(C)cc2c(c1O)[C@@H]1C3[C@@H]4SC[C@]5(NC(C)Cc6c5[nH]c5ccc(O)cc65)C(=O)COC[C@@H](c5c6c(c(C)c(OC(C)=O)c54)OCO6)N3[C@@H](O)[C@H](C2)N1C` (stereo partly shown) [Compound 37] showed a Kidney [1] of 2.92E−08, a Myelo [2] of 4.59E−09 and a Skeletal [3] of 2.22E−08. The Heart [4] was 1.74E−08, the Liver [5] was 5.46E−09 and the GI50 (IGROV) was 2.82 nM. It also gave a TGI (IGROV) of 7.06E−09 Molar, a CC50 (IGROV) of 613 nM and an IC (TGI) (IGROV-ET; Homo sapiens, 48 h, IGROV-ET, 48 hours exposure, SRB) of 119 nM. The CC50 (IGROV-ET; Homo sapiens, 48 h, read-out: LC50, IGROV-ET, 48 hours exposure, SRB) was 12700 nM, the GI50 (IGROV-ET; [6]) was 37.6 nM and the GI50 (LOVO; [7]) was 2.92 nM. For the same compound, the IC (TGI) (LOVO; [7]) was 8.97 nM, the CC50 (LOVO; Homo sapiens, LoVo, 48 h, read-out: LC50, LOVO, 48 hours exposure, SRB) was 12700 nM and the GI50 (DU145; DU145, 48 hours exposure, SRB) was 4.6 nM. It also gave an IC (TGI) (DU145; Homo sapiens, DU-145, 48 h, DU145, 48 hours exposure, SRB) of 10.6 nM, a CC50 (DU145; Homo sapiens, DU-145, 48 h, read-out: LC50, DU145, 48 hours exposure, SRB) of 12700 nM and a GI50 (LOVO-DOX; Homo sapiens, 48 h, LOVO-DOX, 48 hours exposure, SRB) of 61.7 nM. It also gave a CC50 (LOVO-DOX; Homo sapiens, 48 h, read-out: LC50, LOVO-DOX, 48 hours exposure, SRB) of 12700 nM, a TGI (LOVO-DOX; [8]) of 4.10E−07 Molar and a GI50 (PANC-1; Homo sapiens, PANC-1, 48 h) of 3.12 nM. The IC (TGI) (PANC-1; Homo sapiens, PANC-1, 48 h) was 11.8 nM, the CC50 (PANC-1) was 3020 nM and the GI50 (K562; Homo sapiens, K562, 48 h) was 0.492 nM. For the same compound, the IC (TGI) (K562; Homo sapiens, K562, 48 h) was 1.36 nM, the CC50 (K562) was 12.7 nM and the GI50 (LNCAP; [9]) was 0.26 nM. For the same compound, the IC (TGI) (LNCAP; [9]) was 0.856 nM, the CC50 (LNCAP; Homo sapiens, LNCaP, 48 h, read-out: LC50, LNCAP, 48 hours exposure, SRB) was 4.75 nM and the TGI (A549) was 2.17E−08 Molar. It also gave a GI50 (A549; Homo sapiens, A549, 48 h) of 4.23 nM, a CC50 (A549) of 138 nM and a GI50 (HT29; [10]) of 3.71 nM. The IC (TGI) (HT29; [10]) was 14 nM, the CC50 (HT29; Homo sapiens, HT-29, 48 h, read-out: LC50, HT29, 48 hours exposure, SRB) was 12700 nM and the GI50 (SK-BR3) was 2.96 nM. The TGI (SK-BR3) was 6.80E−09 Molar, the CC50 (SK-BR3) was 141 nM and the GI50 (MEL-28; Homo sapiens, SK-MEL-28, 48 h) was 2.4 nM. For the same compound, the IC (TGI) (MEL-28; Homo sapiens, SK-MEL-28, 48 h) was 6.82 nM, the CC50 (MEL-28) was 33.5 nM and the TGI (H-MEC-1; [11]) was 3.58E−08 Molar. For the same compound, the GI50 (H-MEC-1; Homo sapiens, HMEC-1, 48 h, H-MEC-1, 48 hours exposure, SRB) was 2.22 nM, the CC50 (H-MEC-1; Homo sapiens, HMEC-1, 48 h, read-out: LC50, H-MEC-1, 48 hours exposure, SRB) was 12700 nM and the GI50 (SK-OV3; Homo sapiens, SK-OV-3, 48 h, SK-OV3, 48 hours exposure, SRB) was 3.57 nM. For the same compound, the CC50 (SK-OV3; Homo sapiens, SK-OV-3, 48 h, read-out: LC50, SK-OV3, 48 hours exposure, SRB) was 12700 nM and the TGI (SK-OV3; SK-OV3, 48 hours exposure, SRB) was 1.07E−08 Molar.
`COc1c(C)cc2c(c1O)[C@@H]1C3[C@@H]4SC[C@]5(NC(C)Cc6c5[nH]c5ccc(O)cc65)C(=O)COC[C@@H](c5c6c(c(C)c(OC(C)=O)c54)OCO6)N3[C@@H](O)[C@H](C2)N1C` (stereo partly shown) [Compound 38] gave a Kidney [1] of 9.85E−08, a Myelo [2] of 9.66E−11 and a Skeletal [3] of 1.29E−08. For the same compound, the Heart [4] was 2.96E−09, the Liver [5] was 1.39E−10 and the GI50 (IGROV) was 0.757 nM. It also gave a TGI (IGROV) of 2.89E−09 Molar, a CC50 (IGROV) of 8.4 nM and a GI50 (IGROV-ET; [6]) of 15.7 nM. It also gave a TGI (IGROV-ET; [6]) of 6.59E−08 Molar, a CC50 (IGROV-ET; read-out: LC50, IGROV-ET, 48 hours exposure, SRB) of 6510 nM and a GI50 (LOVO; LOVO, 48 hours exposure, SRB) of 3.55 nM. The TGI (LOVO; LOVO, 48 hours exposure, SRB) was 1.03E−08 Molar, the CC50 (LOVO; read-out: LC50, LOVO, 48 hours exposure, SRB) was 12700 nM and the GI50 (DU145; DU145, 48 hours exposure, SRB) was 2.04 nM. It also gave a TGI (DU145; DU145, 48 hours exposure, SRB) of 6.80E−09 Molar, a CC50 (DU145; read-out: LC50, DU145, 48 hours exposure, SRB) of 12700 nM and a GI50 (LOVO-DOX; [8]) of 55.3 nM. The TGI (LOVO-DOX; [8]) was 8.42E−07 Molar, the CC50 (LOVO-DOX; read-out: LC50, LOVO-DOX, 48 hours exposure, SRB) was 12700 nM and the GI50 (PANC-1) was 3.22 nM. It also gave a TGI (PANC-1) of 8.37E−09 Molar, a CC50 (PANC-1) of 428 nM and a GI50 (K562) of 0.422 nM. For the same compound, the TGI (K562) was 8.18E−10 Molar, the CC50 (K562) was 3.15 nM and the GI50 (LNCAP; LNCAP, 48 hours exposure, SRB) was 0.2 nM. It also gave a TGI (LNCAP; LNCAP, 48 hours exposure, SRB) of 7.21E−10 Molar, a CC50 (LNCAP; read-out: LC50, LNCAP, 48 hours exposure, SRB) of 3.07 nM and a TGI (A549) of 5.24E−09 Molar. For the same compound, the GI50 (A549) was 2.38 nM, the CC50 (A549) was 11.5 nM and the GI50 (HT29; HT29, 48 hours exposure, SRB) was 4.2 nM. For the same compound, the TGI (HT29; HT29, 48 hours exposure, SRB) was 1.69E−08 Molar, the CC50 (HT29; read-out: LC50, HT29, 48 hours exposure, SRB) was 12700 nM and the GI50 (SK-BR3) was 1.07 nM. The TGI (SK-BR3) was 3.38E−09 Molar, the CC50 (SK-BR3) was 9.54 nM and the GI50 (MEL-28) was 2.73 nM. For the same compound, the TGI (MEL-28) was 5.33E−09 Molar, the CC50 (MEL-28) was 10.4 nM and the GI50 (H-MEC-1; [11]) was 3.06 nM. For the same compound, the TGI (H-MEC-1; [11]) was 8.93E−09 Molar, the CC50 (H-MEC-1; read-out: LC50, H-MEC-1, 48 hours exposure, SRB) was 12700 nM and the GI50 (SK-OV3; SK-OV3, 48 hours exposure, SRB) was 2.55 nM. The TGI (SK-OV3; SK-OV3, 48 hours exposure, SRB) was 7.13E−09 Molar and the CC50 (SK-OV3; read-out: LC50, SK-OV3, 48 hours exposure, SRB) was 12700 nM.
